Test results from ChEMBL document CHEMBL1201862, “PubChem BioAssay data set” (2004).
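1) Cells in 96-well plates. 2) Compound, 48 h, 5 concentrations. 3) Linear interpolation between surrounding doses. 4) Unreached endpoint = highest concentration. GI50 marks 50% less growth.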 Activity calls are given as the source filed them. Rule as the data show it: active = GI50 up to about 1.1 µM and inactive = higher. Where a SMILES comes first, the peptide text is derived from it. [ ]: non-standard residue; d: D form. The star is where a group is joined. NMeAc5c = CNC1(C(=O)O)CCCC1; Boc = CC(C)(C)OC(=O)*; OBn = c1ccc(CO*)cc1

What was measured:
Assay in all cases: DTP human tumour cell line panel, 48 h
SNB-19 = system: SNB-19
M14 = system: M14
A549 = system: A549
SW-620 = system: SW-620
ACHN = system: ACHN
CCRF-CEM = system: CCRF-CEM
SN12C = system: SN12C
SK-MEL-28 = system: SK-MEL-28
NCI-H226 = system: NCI-H226
UACC-62 = system: UACC-62
Malme-3M = system: Malme-3M
SK-MEL-2 = system: SK-MEL-2
786-0 = system: 786-0
IGROV-1 = system: IGROV-1
T47D = system: T47D
MDA-MB-435 = system: MDA-MB-435
DU-145 = system: DU-145
SK-MEL-5 = system: SK-MEL-5
A498 = system: A498

Row | SMILES | GI50 (SNB-19) | GI50 (M14) | GI50 (A549) | GI50 (SW-620) | GI50 (ACHN) | GI50 (CCRF-CEM) | GI50 (SN12C) | GI50 (SK-MEL-28) | GI50 (NCI-H226) | GI50 (UACC-62) | GI50 (Malme-3M) | GI50 (SK-MEL-2) | GI50 (786-0) | GI50 (IGROV-1) | GI50 (T47D) | GI50 (MDA-MB-435) | GI50 (DU-145) | GI50 (SK-MEL-5) | GI50 (A498)
1 | O=C1c2ccccc2C2C1C(c1ccccc1)C1(Cc3ccccc3C1=O)C2c1ccccc1 (stereo not given) | > 100 µM (inactive) | > 100 µM (inactive) | > 100 µM (inactive) | > 100 µM (inactive) | > 100 µM (inactive) | 4.85 µM (inactive) | > 100 µM (inactive) | > 100 µM (inactive) | > 100 µM (inactive) | 10.1 µM (inactive) | > 100 µM (inactive) | > 100 µM (inactive) | > 100 µM (inactive) | 11.7 µM (inactive) | 11.4 µM (inactive) | > 73.6 µM (inactive) | > 100 µM (inactive) | > 55.8 µM (inactive) | 
2 | CC(C)(Oc1ccc(C2C[C@H]2Cl)cc1)C(=O)O (stereo not given in full) | > 100 µM (inactive) |  | > 100 µM (inactive) | > 100 µM (inactive) |  |  | > 100 µM (inactive) | > 100 µM (inactive) |  | > 100 µM (inactive) |  | > 100 µM (inactive) | > 100 µM (inactive) | > 100 µM (inactive) | 15.3 µM (inactive) | > 100 µM (inactive) | > 100 µM (inactive) | > 100 µM (inactive) | > 100 µM (inactive)
3 | NCCC(=O)NC(Cc1c[nH]cn1)C(=O)O (stereo not given) | > 100 µM (inactive) | > 100 µM (inactive) | > 100 µM (inactive) | > 100 µM (inactive) | > 100 µM (inactive) | > 100 µM (inactive) | > 100 µM (inactive) | > 100 µM (inactive) | > 100 µM (inactive) |  | > 100 µM (inactive) | > 100 µM (inactive) | > 100 µM (inactive) | > 100 µM (inactive) | > 100 µM (inactive) | > 100 µM (inactive) | > 100 µM (inactive) | > 100 µM (inactive) | 
4 | COC(CNC(=O)C(C)NC(=O)C(C)NC(=O)c1ccccc1)OC (stereo not given) |  | > 100 µM (inactive) | > 100 µM (inactive) | > 100 µM (inactive) | > 100 µM (inactive) | > 100 µM (inactive) | > 100 µM (inactive) |  | > 100 µM (inactive) | > 100 µM (inactive) | > 100 µM (inactive) | > 100 µM (inactive) | > 100 µM (inactive) | > 100 µM (inactive) | > 100 µM (inactive) | > 100 µM (inactive) | > 100 µM (inactive) | > 100 µM (inactive) | 
5 | C=CC1(c2ccc(Br)cc2)OCCCO1 | > 100 µM (inactive) | > 100 µM (inactive) | > 100 µM (inactive) | > 100 µM (inactive) | > 100 µM (inactive) | > 100 µM (inactive) | > 100 µM (inactive) | > 100 µM (inactive) | > 100 µM (inactive) | > 100 µM (inactive) | > 100 µM (inactive) | > 100 µM (inactive) | > 100 µM (inactive) | > 100 µM (inactive) | > 100 µM (inactive) | > 100 µM (inactive) | > 100 µM (inactive) | > 100 µM (inactive) | 
6 | CN(C(=O)C(Cc1ccccc1)NC(=O)OC(C)(C)C)C1(C(=O)NC(Cc2ccccc2)C(=O)OCc2ccccc2)CCCC1 (stereo not drawn) (Boc-Phe-[NMeAc5c]-Phe-OBn; configuration not given here) | 53.5 µM (inactive) | 23.1 µM (inactive) | 33.3 µM (inactive) | 39.7 µM (inactive) | 24.9 µM (inactive) | 39.7 µM (inactive) | 46.5 µM (inactive) | 58.1 µM (inactive) | 40.6 µM (inactive) | 24.5 µM (inactive) | > 100 µM (inactive) | 44.3 µM (inactive) | 40.9 µM (inactive) | 53.6 µM (inactive) | 75.5 µM (inactive) | 37.3 µM (inactive) | 58.3 µM (inactive) | 59.6 µM (inactive) | 
7 | CC1CN=C(N(Cc2ccc(F)cc2)C(=O)Nc2ccc(Cl)cc2)S1 (stereo not given) | 95.1 µM (inactive) | 0.51 µM (active) | 21.4 µM (inactive) | 22.5 µM (inactive) | 6.68 µM (inactive) | 28 µM (inactive) | 28.2 µM (inactive) | 16.3 µM (inactive) |  |  | 34.8 µM (inactive) | 15.1 µM (inactive) | 20.5 µM (inactive) | 18.9 µM (inactive) | 13.3 µM (inactive) |  | 61.9 µM (inactive) | 13.7 µM (inactive) | 18.9 µM (inactive)
8 | CCCCN(C)C(=O)C1=C(C)NC(C)=C(C(=O)N(C)CCCC)C1 | > 100 µM (inactive) | > 100 µM (inactive) | > 100 µM (inactive) | > 100 µM (inactive) | > 100 µM (inactive) | 66.2 µM (inactive) | > 100 µM (inactive) | > 100 µM (inactive) | > 100 µM (inactive) | > 100 µM (inactive) |  | > 100 µM (inactive) | > 100 µM (inactive) | > 100 µM (inactive) | 54.7 µM (inactive) | > 100 µM (inactive) | > 100 µM (inactive) | > 100 µM (inactive) | > 100 µM (inactive)
